{"source": "patent US4923852A", "about": "“Aminoalkyl naphthalenediols as host resistance enhancers against viral infections” (Merck & Co., Inc., priority 1987, dated 1990)", "key": {"Pseudomonas aeruginosa": {"system": "Pseudomonas aeruginosa", "test": "In vivo immunopotentiation against challenge with lethal doses of Pseudomonas aeruginosa, cyclophosphamide-immunocompromised mouse", "set-up": "species or system mouse (random outbred albino CFl female)", "details": "250 mg/kg cyclophosphamide i.p., 4 days prior to challenge", "experimental": "An immunocompromised mouse model, established by intraperitoneal treatment of random outbred albino CFl female mice (ca. 25g) with 250 mg/kg body weight of cyclophosphamide (CY) 4 days Prior to bacterial challenge with Pseudomonas aeruginosa, was used as the assay system. In this model, test compounds were injected only once (2 hours) after CY treatment. After bacterial challenge, LD50 's (50% lethal doses) were determined. Increased LD50 's in treated mice over controls indicated a return to normality. The LD50 for untreated or vehicle-treated mice was routinely 10^6 -10^7 colony forming units (CFU) of P. aeruginosa organisms. After CY treatment, the LD50 was reduced to 10^1 to 10^2 CFU's. The protection afforded by test compound (Protective Index) was determined by calculating the number of LD50 's of protection of treated animals over the LD50 of CY controls."}, "[1]": {"system": "AIDS or AIDS-related complex (ARC)", "details": "clinical; cited from earlier work"}, "HIV [2]": {"system": "HIV", "details": "clinical; cited from earlier work"}, "[3]": {"details": "cited from earlier work"}, "T cell levels": {"system": "T cell levels", "details": "13 AIDS patients with perpetually swollen glands; cited from earlier work"}, "HIV [4]": {"system": "HIV", "details": "cited from earlier work"}, "[5]": {"system": "AIDS-related Kaposi's sarcoma", "details": "some AIDS-related Kaposi's sarcoma cases; cited from earlier work"}, "[6]": {"details": "in vivo, cited from earlier work"}, "[7]": {"system": "HIV reverse transcriptase", "details": "cited from earlier work"}, "[8]": {"system": "reverse transcriptase in several retroviruses", "details": "in vitro; cited from earlier work"}}, "note": "“Also recorded” adds a separate entry of the source. Like-named read-outs stand apart in the source and are kept apart here."}
{"compound": "O=P1(N(CCCl)CCCl)NCCCO1", "note": "(stereo not shown) [cyclophosphamide]", "values": [{"measurement": "LD50 of P. aeruginosa after CY treatment", "setting": "Pseudomonas aeruginosa", "result": "10^1 to 10^2 CFU"}]}
{"compound": "NC(=O)c1ncn([C@@H]2O[C@H](CO)[C@@H](O)[C@H]2O)n1", "note": "[Ribavirin, 1-β-D-ribofuranosyl-1,2,4-triazole-3-carboxamide]", "values": [{"measurement": "effect on immune function in patients", "setting": "[1]", "result": "improved immune function in AIDS patients"}, {"measurement": "effect on HIV reproduction / viral replication in humans", "setting": "HIV [2]", "result": "inhibited viral replication"}, {"measurement": "safety profile", "setting": "[3]; in vivo", "result": "acceptable"}, {"measurement": "tolerability", "setting": "[3]; in vivo", "result": "well tolerated"}]}
{"compound": "CO[C@H]1/C=C/O[C@@]2(C)Oc3c(C)c(O)c4c(c3C2=O)C2=NC3(CCN(CC(C)C)CC3)NC2=C(NC(=O)/C(C)=C\\C=C\\[C@H](C)[C@H](O)[C@@H](C)[C@@H](O)[C@@H](C)[C@H](OC(C)=O)[C@@H]1C)C4=O", "note": "[Ansamycin, rifabutin]", "values": [{"measurement": "efficacy in AIDS or ARC patients", "setting": "[1]", "result": "some efficacy in treating AIDS patients with an opportunistic infection caused by the bacterium Mycobacterium aviumintracellulare"}]}
{"compound": "CC(C)(S)[C@@H](N)C(=O)O", "note": "[D-Penicillamine, 3-mercapto-D-valine]", "values": [{"measurement": "effect on HIV reproduction / viral replication in humans", "setting": "HIV [2]", "result": "Inhibits HIV reproduction in humans; also recorded: suppressed the virus"}, {"measurement": "effect on T cell levels", "setting": "T cell levels", "result": "temporarily depressed T cell levels"}]}
{"compound": "CC(C)(N1CC1C#N)N1CC1C(N)=O", "note": "(stereo not shown) [Azimexon]", "values": [{"measurement": "efficacy in AIDS or ARC patients", "setting": "[1]", "result": "improvements in symptoms and immune function in patients with ARC but not AIDS"}, {"measurement": "adverse / toxic effects in humans", "setting": "[3]; clinical", "result": "only toxic effect was mild hemolysis"}]}
{"compound": "CC(=O)Nc1ccc(C(=O)O)cc1.CC(=O)Nc1ccc(C(=O)O)cc1.CC(=O)Nc1ccc(C(=O)O)cc1.CC(O)CN(C)C.CC(O)CN(C)C.CC(O)CN(C)C.O=c1[nH]cnc2c1ncn2[C@@H]1O[C@H](CO)[C@@H](O)[C@H]1O", "note": "[Inosine pranobex, p-Acetamidobenzoic acid salt of dimethylaminoisopropanol: inosinate complex]", "values": [{"measurement": "effect on immune function in patients", "setting": "[1]", "result": "improve immune function in ARC patients"}]}
{"compound": "α-Interferon", "values": [{"measurement": "effect on HIV infectivity / growth", "setting": "HIV [4]", "result": "Checks the growth of HIV in vitro"}, {"measurement": "tumor regression", "setting": "[5]", "result": "induced tumor regression in some AIDS-related Kaposi's sarcoma cases"}]}
{"compound": "Cc1cn([C@H]2C[C@H](N=[N+]=[N-])[C@@H](CO)O2)c(=O)[nH]c1=O", "note": "[Azidothymidine, 3'-azido-3'-deoxythymidine]", "values": [{"measurement": "oral absorption", "setting": "[6]; po", "result": "Well absorbed orally"}, {"measurement": "half-life in the body", "setting": "[6]", "result": "relatively short half-life"}, {"measurement": "penetration of central nervous system", "setting": "[6]", "result": "effectively penetrates central nervous system"}, {"measurement": "efficacy in AIDS or ARC patients", "setting": "[1]", "result": "promise in prolonging lives of patients with AIDS or AIDS-related complex (ARC)"}, {"measurement": "adverse / toxic effects in humans", "setting": "[3]; clinical", "result": "some toxicity, with anemia and headaches"}]}
{"compound": "O=C(O)P(=O)(O)O", "note": "[Foscarnet, trisodium phosphonoformate]", "values": [{"measurement": "adverse / toxic effects in humans", "setting": "[3]; in vivo", "result": "serious side effects"}, {"measurement": "inhibition of HIV reverse transcriptase", "setting": "[7]", "result": "Inhibits HIV reverse transcriptase activity in vitro at levels pharmacologically acceptable in vivo"}]}
{"compound": "Cc1ccc(C(=O)Nc2ccc(S(=O)(=O)O)c3cc(S(=O)(=O)O)cc(S(=O)(=O)O)c23)cc1NC(=O)c1cccc(NC(=O)Nc2cccc(C(=O)Nc3cc(C(=O)Nc4ccc(S(=O)(=O)O)c5cc(S(=O)(=O)O)cc(S(=O)(=O)O)c45)ccc3C)c2)c1", "note": "[Suramin]", "values": [{"measurement": "efficacy in AIDS or ARC patients", "setting": "[1]", "result": "little or no evidence of clinical improvement or immunologic recovery"}, {"measurement": "inhibition of HIV reverse transcriptase", "setting": "[7]", "result": "Potent inhibitor of HIV reverse transcriptase"}]}
{"compound": "ammonium 21-tungsto-9-antimoniate [HPA-23]", "values": [{"measurement": "inhibition of reverse transcriptase in several retroviruses", "setting": "[8]", "result": "Inhibits reverse transcriptase in several retroviruses in vitro"}, {"measurement": "efficacy in AIDS or ARC patients", "setting": "[1]", "result": "no therapeutic benefit has been documented in AIDS patients"}, {"measurement": "effect on HIV infectivity / growth", "setting": "HIV [4]", "result": "some tendency to check the growth of HIV"}]}
